Where two headings read alike, the source gives them in different places.
Key:
MDRAB = assay: MIC determination, microdilution broth method; type: cell-based, Acinetobacter baumannii
Method: Determination methods of a Minimal Inhibitory Concentration (MIC) and a Minimum Bactericidal Concentration (MBC) of a test product: the MIC and the MBC of the Pithecellobium clypearia Benth water or ethanol extract to the MDRAB are determined by a microdilution broth method. And it is operated by referring to the microdilution broth method recommended by National Committee for Clinical Laboratory Standards (NCCLS).

MDRPA = assay: Checkerboard assay (combined-use MIC, FIC); type: cell-based, Pseudomonas aeruginosa; details: for FIC, all strains / MIC50 of the antibiotic after combined use / MIC90 of the antibiotic after combined use / reduction of the antibiotic's MIC50 vs single use / reduction of the antibiotic's MIC90 vs single use / share of strains with FIC ≤ 0.5: 20 MDRPAs; for combined-use MIC: EA (P. clypearia water extract) combined with LVX
In short: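 Checkerboard combinations of S20b and antibiotic run per NCCLS method against ESBL E. coli, MDR A. baumannii and MDR P. aeruginosa.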

[1] = single use, 20 MDRABs, EA=10% ethanol extract
[2] = single use, 20 MDRABs, EA=water extract
[3] = single use, 20 MDRABs, section of the 95% ethanol extract
[4] = antibiotic with 10% ethanol extract
[5] = antibiotic with 60% ethanol extract
[6] = antibiotic with 95% ethanol extract
[7] = antibiotic with EA (water extract)

C[C@H]1COc2c(N3CCN(C)CC3)c(F)cc3c(=O)c(C(=O)O)cn1c23 [LVX, Levofloxacin]
4 µg/mL: MIC (MDRAB; Acinetobacter baumannii, strain AS, EA=P. clypearia 95% ethanol extract, read-out: single-use MIC) | MIC90 of the antibiotic after combined use (MDRPA; [4]) | MIC90 of the antibiotic after combined use (MDRPA; [6]) | combined-use MIC (MDRPA; strain P1) | combined-use MIC (MDRPA; strain P4) | combined-use MIC (MDRPA; strain P17) | combined-use MIC (MDRPA; strain P19)
8 µg/mL: MIC (MDRAB; Acinetobacter baumannii, strain A16, EA=P. clypearia 95% ethanol extract, read-out: single-use MIC) | MIC (MDRAB; Acinetobacter baumannii, strain A16, single use, EA=10% ethanol extract, read-out: MIC) | MIC (MDRAB; Acinetobacter baumannii, strain A16, single use, EA=water extract, read-out: MIC) | MIC (MDRAB; Acinetobacter baumannii, strain A18, EA=60% ethanol extract, read-out: MIC) | MIC (MDRAB; Acinetobacter baumannii, strain A18, EA=95% ethanol extract, read-out: MIC) | MIC (MDRAB; Acinetobacter baumannii, strain A18, EA=P. clypearia 95% ethanol extract, read-out: single-use MIC) | MIC (MDRAB; Acinetobacter baumannii, strain A18, single use, EA=10% ethanol extract, read-out: MIC) | MIC (MDRAB; Acinetobacter baumannii, strain A18, single use, EA=water extract, read-out: MIC) | MIC50 (MDRAB; Acinetobacter baumannii, single use, 20 MDRABs, section of the 60% ethanol extract, read-out: MIC50) | MIC50 (MDRAB; MDRABs, EA=60% ethanol extract) | MIC50 (MDRAB; MDRABs, EA=95% ethanol extract) | MIC50 (MDRAB; [1]) | MIC50 (MDRAB; [2]) | MIC50 (MDRAB; [3]) | MIC90 of the antibiotic after combined use (MDRPA; [5]) | MIC90 of the antibiotic after combined use (MDRPA; [7]) | combined-use MIC (MDRPA; strain P18)
≤ 2: FIC, all strains (MDRPA; [4]) | FIC, all strains (MDRPA; [6]) | FIC, all strains (MDRPA; [7])
0.5 to 32 µg/mL: MIC Range (MDRAB; MDRABs, EA=60% ethanol extract) | MIC Range (MDRAB; MDRABs, EA=95% ethanol extract) | MIC Range (MDRAB; [1]) | MIC Range (MDRAB; [2])
87.5%: reduction of the antibiotic's MIC90 vs single use (MDRPA; [4]) | reduction of the antibiotic's MIC90 vs single use (MDRPA; [6])
75%: reduction of the antibiotic's MIC50 vs single use (MDRPA; [4]) | reduction of the antibiotic's MIC50 vs single use (MDRPA; [5]) | reduction of the antibiotic's MIC90 vs single use (MDRPA; [5]) | reduction of the antibiotic's MIC50 vs single use (MDRPA; [6]) | reduction of the antibiotic's MIC50 vs single use (MDRPA; [7]) | reduction of the antibiotic's MIC90 vs single use (MDRPA; [7])
10%: share of strains with FIC ≤ 0.5 (MDRPA; [5]) | share of strains with FIC ≤ 0.5 (MDRPA; [6])
15%: share of strains with FIC ≤ 0.5 (MDRPA; [4]) | share of strains with FIC ≤ 0.5 (MDRPA; [7])
16 µg/mL: MIC (MDRAB; Acinetobacter baumannii, strain A17, EA=60% ethanol extract, read-out: MIC) | MIC (MDRAB; Acinetobacter baumannii, strain A17, EA=95% ethanol extract, read-out: MIC) | MIC (MDRAB; Acinetobacter baumannii, strain A17, EA=P. clypearia 95% ethanol extract, read-out: single-use MIC) | MIC (MDRAB; Acinetobacter baumannii, strain A17, single use, EA=10% ethanol extract, read-out: MIC) | MIC (MDRAB; Acinetobacter baumannii, strain A17, single use, EA=water extract, read-out: MIC) | MIC (MDRAB; Acinetobacter baumannii, strain A19, EA=60% ethanol extract, read-out: MIC) | MIC (MDRAB; Acinetobacter baumannii, strain A19, EA=95% ethanol extract, read-out: MIC) | MIC (MDRAB; Acinetobacter baumannii, strain A19, EA=P. clypearia 95% ethanol extract, read-out: single-use MIC) | MIC (MDRAB; Acinetobacter baumannii, strain A19, single use, EA=10% ethanol extract, read-out: MIC) | MIC (MDRAB; Acinetobacter baumannii, strain A19, single use, EA=water extract, read-out: MIC) | MIC (MDRAB; Acinetobacter baumannii, strain A20, EA=60% ethanol extract, read-out: MIC) | MIC (MDRAB; Acinetobacter baumannii, strain A20, EA=95% ethanol extract, read-out: MIC) | MIC (MDRAB; Acinetobacter baumannii, strain A20, EA=P. clypearia 95% ethanol extract, read-out: single-use MIC) | MIC (MDRAB; Acinetobacter baumannii, strain A20, single use, EA=10% ethanol extract, read-out: MIC) | MIC (MDRAB; Acinetobacter baumannii, strain A20, single use, EA=water extract, read-out: MIC)
0.03125 µg/mL: combined-use MIC (MDRPA; strain P2) | combined-use MIC (MDRPA; strain P3) | combined-use MIC (MDRPA; strain P5) | combined-use MIC (MDRPA; strain P6) | combined-use MIC (MDRPA; strain P7) | combined-use MIC (MDRPA; strain P8)
32 µg/mL: MIC90 (MDRAB; Acinetobacter baumannii, single use, 20 MDRABs, section of the 60% ethanol extract, read-out: MIC90) | MIC90 (MDRAB; MDRABs, EA=60% ethanol extract) | MIC90 (MDRAB; MDRABs, EA=95% ethanol extract) | MIC90 (MDRAB; [1]) | MIC90 (MDRAB; [2]) | MIC90 (MDRAB; [3]) | combined-use MIC (MDRPA; strain P10)
1 µg/mL: MIC50 of the antibiotic after combined use (MDRPA; [4]) | MIC50 of the antibiotic after combined use (MDRPA; [5]) | MIC50 of the antibiotic after combined use (MDRPA; [6]) | MIC50 of the antibiotic after combined use (MDRPA; [7]) | combined-use MIC (MDRPA; strain P11) | combined-use MIC (MDRPA; strain P13) | combined-use MIC (MDRPA; strain P14) | combined-use MIC (MDRPA; strain P15) | combined-use MIC (MDRPA; strain P20)
0.5 µg/mL: combined-use MIC (MDRPA; strain P12)
2 µg/mL: combined-use MIC (MDRPA; strain P9) | combined-use MIC (MDRPA; strain P16)
